# Read-outs that look alike come from different tables or passages of the source.
# Key:
# [1] = Ligand protonation constants by pH-potentiometric titration; type: physicochemical; conditions: sum of literature protonation constants of related ligands
# [2] = Stability constants of La^3+ complexes by pH potentiometry; type: physicochemical; conditions: −log[La^3+]free for [L] = 10 μM and [La^3+] = 1 μM at pH 7.4 and 25 °C; from literature constants
# Procedure: The stability constants of the La^3+ complexes were determined using pH potentiometry (I = 0.15 NaCl). A significant amount of the metal ion is not complexed by the TPADAC^4– ligand at the beginning of the titration at pH 1.7 (∼20%), which allows for stability constant determination using potentiometry. In the case of TPAEN^4– the amount of free La^3+ was small (∼4%), but the stability constants could be determined by fitting the titration data using both 1:1 and 1:2 (TPAEN^4–:La^3+) stoichiometries (Figure S1, Supporting Information). The TPADAC^4– ligand also forms complexes with 1:1 and 1:2 stoichiometries (Figure S2, Supporting Information).
# The thermodynamic stability of the complexes at physiologically relevant pH was assessed by calculating pLa values, defined as −log[La^3+]free for [L] = 10 μM and [La^3+] = 1 μM at pH 7.4 and 25 °C following the recommendation of Raymond. This is a result of the high stability constants (log K LaL) that characterize the formation of these complexes, as well as the relatively low basicity of these ligands. Indeed, cyclohexyl derivatives TPADAC^4– and CHXOCTAPA^4– display considerably higher basicity than the ethyl analogues, as indicated by the Σ log K i ^H (i = 1–5) values shown in Table . Similarly, DTPA and DO3A derivatives are characterized by rather high basicities, which results in relatively low pLa values.
# The pH-potentiometric titrations were carried out with a Methrohm 785 DMP titrator using a Metrohm-6.0233.100 combined electrode. The titrated solutions (5.000 mL) were thermostated at 25 °C and stirred and kept under inert gas atmosphere (N2) to avoid the effect of CO2. The pH-calibration of the electrode was performed using KH-phthalate (pH = 4.005) and borax (pH = 9.177) buffers. The concentrations of the ligand stock solutions were determined by pH-potentiometric titration. The protonation constants of the TPAEN^4– (in the pH range of 2.19–12.00 a total of 213 data pairs by titrating a 2.72 mM a ligand solution) and TPADAC^4– (in the pH range of 1.88–11.85 a total of 208 data pairs by titrating a 2.32 mM ligand solution), the stability and protonation constants of the complexes formed with La^3+ and the formation constants of their dinuclear complexes were determined by pH-potentiometric titration. The metal-to-ligand concentration ratios were 1:1 and 2:1. For the 1:1 ratio a total of 240 data pairs were recorded for a H4TPAEN concentration of 2.29 mM in the pH range of 1.77–11.86, while a total of 222 data pairs were collected in the pH range 1.72–11.85 for a 2.72 mM solution of H4TPADAC. For the 2:1 ratio we collected 259 data pairs for a 2.31 mM solution of H4TPAEN in the pH range of 1.73–11.82, and 259 data pairs for a 2.71 mM concentration of H4TPADAC in the pH range of 1.70–11.85. The calculation of [H^+] from the measured pH values was performed with the use of the method proposed by Irving et al. by titrating a 0.01 M HCl solution (I = 0.15 M NaCl) with a standardized NaOH solution. The differences between the measured and calculated pH values were used to obtain the [H^+] concentrations from the pH-data obtained in the titrations. The ionic product of water was determined from the same experiment in the pH range 11.25–11.85. The protonation and stability constants were calculated from the titration data with the PSEQUAD program. The quality of the fits was assessed with the fitting parameter (FP) calculated by PSEQUAD, which is defined as 2 FP=∑i=1n(Vi,calc−Vi,meas)^2/n−k
# [3] = literature value, cited from earlier work
# [4] = 0.15 M NaCl; ref footnote a; cited from earlier work
compound,measurement,setting,value
"O=C(O)CN(CCN(CC(=O)O)Cc1cccc(C(=O)O)n1)Cc1cccc(C(=O)O)n1 [OCTAPA^4–, 6,6′-((ethane-1,2-diylbis((carboxymethyl)azanediyl))bis(methylene))dipicolinic acid]",Σ log K i ^H (i = 1–5),[1],22.20
same,pLa,[2],19.7
same,log K 1 ^H,[3]; ref footnote a,8.52
same,log K 2 ^H,[3]; ref footnote a,5.40
same,log K 3 ^H,[3]; ref footnote a,3.65
same,log K 4 ^H,[3]; ref footnote a,2.97
same,log K 5 ^H,[3]; ref footnote a,1.66
same,log K 1 ^H,[3]; ref footnote b,8.58
same,log K 2 ^H,[3]; ref footnote b,5.43
same,log K 3 ^H,[3]; ref footnote b,3.75
same,log K 4 ^H,[3]; ref footnote b,3.08
same,log K 5 ^H,[3]; ref footnote b,2.21
same,log K 6 ^H,[3]; ref footnote b,1.61 ^b
same,log K LaL,[4],19.92

# From paper PMC12406198, “Decadentate Acyclic Chelators for Lanthanum Radiopharmaceuticals” (Journal of Medicinal Chemistry, 2025)
